Test results taken from patent US5663197A, “2-(1-hydroxyethyl)-5-hydroxynaphtho[2,3-b]furan-4,9-dione and antitumor agents comprising this compound” (priority 1992, dated 1997).
In brackets after ≈: the same amount, converted by molar mass.

Experiments:
[1] = test system: Human lung squamous cell carcinoma Calu-1 cells; assay: In vitro antitumor test (trypan blue exclusion viable cell count), Calu-1; assay type: cell-based; conditions: 72 h, three days exposure, read-out: LD50 (IC50), 50% growth-inhibitory dose
Procedure: (§1) An appropriate amount of NFD was dissolved in DMSO to give a 1.0 mg/ml stock solution, which was diluted as necessary before use.
(§2) The following cells in the late logarithmic phase were harvested after treatment with trypsin (containing 0.25% trypsin and 0.02% EDTA; 37° C., 3 min) and used in the test: human lung adenocarcinoma cell lines A-549, VMRC-LCD and SK-LU-1, human lung squamous cell carcinoma Calu-1 cells, human colon adenocarcinoma WiDr cells, human prostate cancer LNCaP cells, human vaginal squamous cell carcinoma A-431 cells, human cervical carcinoma HeLa cells, human cholangiocarcinoma HuCC-T1 cells, mouse skin cancer melanoma B16 (M4) cells, human pancreatic carcinoma ASPC-1 cells, human neuroblastoma IMR-132 cells, human lung small cell carcinoma SCCH-194 cells, human uninary bladder carcinoma T24 cells, human renal cell carcinoma […] cells, human gastric cancer NUGC-2 cells, human thyroid carcinoma 8305C cells, human hepatoma HUH-7 cells, human ovarian carcinoma TYK-nu cells and human chorio carcinoma BeWo cells. […] These cells were plated onto a 96-well microplate at a density of 5-10×10^3 cells/cm^2 using DMEM or RPMI-1640 medium containing 10% fetal bovine serum and cultured for 24 hours in a conventional manner, after which a pre-determined amount of NFD dissolved in DMSO was added to each well. […]

[2] = test system: Human renal cell carcinoma VMRC-RCW cells; assay: In vitro antitumor test (trypan blue exclusion viable cell count), VMRC-RCW; assay type: cell-based
Procedure: as §1
as §2, with “cells. Suspension cultures of human breast cancer MRK-nu-1 cells, human malignant B-cell lymphoma cells and human chronic myelogenous leukemia K562 cells were used to harvest the cells to be used in the test.” for “cells.”, “well. Cultivation was continued, and the number of viable cells was counted after 24, 48 and 72 hours.” for “well.”
(§3) Growth inhibitory action and lethal activity of NFD on various types of malignant tumor cells and normal human cells listed above were evaluated by counting the number of viable cells in each well of the 96-well microplate. […]

[3] = test system: Human thyroid carcinoma 8305C cells; assay: In vitro antitumor test (trypan blue exclusion viable cell count), 8305C; assay type: cell-based
Procedure: as §1, §2

lung adenomas in mice = assay: Inhibition of two-step carcinogenesis in mouse lungs; assay type: in vivo, mouse (female ICR)
Procedure: Female ICR mice were used as test animals. Fifteen mice were housed in a cage and provided with the pellet diet and drinking water ad libitum. After one week of preliminary rearing, the six-week-old mice were given in the back a subcutaneous injection of 10 mg/kg body weight of 4-nitroquinoline-N-oxide (4NQO) dissolved in a mixture of olive oil and cholesterol (20:1). From five weeks after initiation, the mice were allowed to orally take 8% glycerol ad libitum as a carcinogenic promoter. The mice which received 4 NQO and 8% glycerol for 25 weeks served as a positive control. On the other hand, the mice in the test group were given ad libitum 8% glycerol containing 0.1 ng/ml of NFD for 25 weeks. Thirty weeks after the onset of the experiment, the mice were killed by cervical dislocation, and the lungs were removed after fixation with formalin under autopsy. Under a stereomicroscope, the adenomas formed in the lung were observed, and the number of adenomas was determined. The numbers were compared between the positive control and NFD-administered groups.

[4] = test system: Human prostate cancer LNCaP cells; assay: In vitro antitumor test (trypan blue exclusion viable cell count), LNCaP; assay type: cell-based
Procedure: as §1
as §2, with “cells. Suspension cultures of human breast cancer MRK-nu-1 cells, human malignant B-cell lymphoma cells and human chronic myelogenous leukemia K562 cells were used to harvest the cells to be used in the test.” for “cells.”, “well. Cultivation was continued, and the number of viable cells was counted after 24, 48 and 72 hours.” for “well.”
as §3

human lung cancer cells = assay: In vitro antitumor test, human lung cancer cells (FIGS. 1-4); assay type: cell-based
Procedure: as §1, §2

CC(O)c1cc2c(o1)C(=O)c1cccc(O)c1C2=O (stereo not shown) [NFD, 2-(1-hydroxyethyl)-5-hydroxynaphtho[2,3-b]furan-4,9-dione]
IC50 [1]: 0.017 µg/mL (≈ 0.0658 µM)
concentration causing necrosis in almost all tumor cells ([2]; FIG. 17): 50 ng/mL
IC50 ([2]; Homo sapiens, 72 h, VMRC-RCW, three days exposure, read-out: LD50 (IC50), 50% growth-inhibitory dose): 0.019 µg/mL (≈ 0.0736 µM)
IC (almost complete) ([2]; Homo sapiens, FIG. 17, read-out: concentration inhibiting growth almost completely): 0.017 µg/mL
IC50 ([3]; 72 h, three days exposure, read-out: LD50 (IC50), 50% growth-inhibitory dose): 0.025 µg/mL (≈ 0.0968 µM)
IC (almost complete) ([3]; FIG. 19, read-out: concentration inhibiting growth almost completely): 0.028 µg/mL
inhibition of adenoma formation in the lung (lung adenomas in mice; 0.1 ng/ml NFD in 8% glycerol, versus positive control): significant inhibition
expression percentage of lung adenomas, lower than that in the positive control group (lung adenomas in mice; 30th week after onset, versus 4NQO + 8% glycerol group): 1/3
concentration causing necrosis in almost all tumor cells ([4]; FIG. 6 (LNCaP; sentence prints human colon adenocarcinoma cells)): 22.4 to 55.9 ng/mL
IC (almost complete) ([4]; FIG. 6 (LNCaP; sentence prints human colon adenocarcinoma cells), read-out: concentration inhibiting growth almost completely): 0.0112 µg/mL
IC50 ([4]; Homo sapiens, 72 h, LNCaP, three days exposure, read-out: LD50 (IC50), 50% growth-inhibitory dose): 0.0017 µg/mL (≈ 0.00658 µM)
concentration causing necrosis in almost all tumor cells (human lung cancer cells): 33.5 to 55.4 ng/mL
IC (almost complete) (human lung cancer cells; Homo sapiens, read-out: concentration inhibiting growth almost completely): 0.0112 to 0.0168 µg/mL
